We go through 25 compounds from patent publication US20230295140A1, “INHIBITORS OF VAP-1” (Acucela Inc., priority 2021, published 2023).

A word on the IC50: it is the midpoint of a concentration-inhibition curve.

What all share (format): biochemical
For assay [1], the target named is rhVAP-1 (Homo sapiens (Human), UniProt Q16853). Description: VAP-1 fluorometric assay (Amplex Red/HRP, benzylamine substrate). The following applies: class symbols, ranges defined in μM. The procedure, abridged: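 Recombinant human VAP-1 oxidizes 50 μM benzylamine in 10 mM NaHCO3 pH 7.4 containing 0.05 mM Amplex Red and 0.5 U HRP, with inhibitor in 0.5% DMSO. After 30 min at 37 °C in the dark, resorufin fluorescence is read […], calibrated against an H2O2 standard curve.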

For assay [2], the target named is rhMAO-A (Homo sapiens (Human), UniProt P21397). Description: MAO-Glo assay, MAO-A inhibition. The gist of the method: (§1)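 Recombinant human MAO-A or MAO-B with luciferin-derivative substrate (10 μM for MAO-A, […]) in 100 mM HEPES pH 7.5, 5% glycerol, 1 h at room temperature; luminescence read 20 min after detection reagent.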
In assay [3] the target is rhMAO-B (Homo sapiens (Human), UniProt P27338). In words: MAO-Glo assay, MAO-B inhibition. The gist of the method: as §1
The mark [4] stands for this setting: class symbols, ranges defined in μM.

rhMAO-B, sequence (P27338 whole entry): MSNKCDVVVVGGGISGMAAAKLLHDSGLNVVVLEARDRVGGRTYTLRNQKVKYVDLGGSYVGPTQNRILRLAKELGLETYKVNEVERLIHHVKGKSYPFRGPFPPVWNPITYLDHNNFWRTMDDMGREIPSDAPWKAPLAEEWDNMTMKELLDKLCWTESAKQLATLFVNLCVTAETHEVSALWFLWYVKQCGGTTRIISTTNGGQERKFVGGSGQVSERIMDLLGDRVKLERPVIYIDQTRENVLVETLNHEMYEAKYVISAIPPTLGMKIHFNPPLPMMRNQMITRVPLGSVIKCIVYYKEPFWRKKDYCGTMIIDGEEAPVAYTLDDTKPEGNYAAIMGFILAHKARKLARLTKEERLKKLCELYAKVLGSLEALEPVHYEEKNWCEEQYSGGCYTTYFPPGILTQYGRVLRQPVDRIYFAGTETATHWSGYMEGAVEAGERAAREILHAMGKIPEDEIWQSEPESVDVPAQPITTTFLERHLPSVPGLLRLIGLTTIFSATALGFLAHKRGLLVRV
rhVAP-1, sequence (Q16853 whole entry): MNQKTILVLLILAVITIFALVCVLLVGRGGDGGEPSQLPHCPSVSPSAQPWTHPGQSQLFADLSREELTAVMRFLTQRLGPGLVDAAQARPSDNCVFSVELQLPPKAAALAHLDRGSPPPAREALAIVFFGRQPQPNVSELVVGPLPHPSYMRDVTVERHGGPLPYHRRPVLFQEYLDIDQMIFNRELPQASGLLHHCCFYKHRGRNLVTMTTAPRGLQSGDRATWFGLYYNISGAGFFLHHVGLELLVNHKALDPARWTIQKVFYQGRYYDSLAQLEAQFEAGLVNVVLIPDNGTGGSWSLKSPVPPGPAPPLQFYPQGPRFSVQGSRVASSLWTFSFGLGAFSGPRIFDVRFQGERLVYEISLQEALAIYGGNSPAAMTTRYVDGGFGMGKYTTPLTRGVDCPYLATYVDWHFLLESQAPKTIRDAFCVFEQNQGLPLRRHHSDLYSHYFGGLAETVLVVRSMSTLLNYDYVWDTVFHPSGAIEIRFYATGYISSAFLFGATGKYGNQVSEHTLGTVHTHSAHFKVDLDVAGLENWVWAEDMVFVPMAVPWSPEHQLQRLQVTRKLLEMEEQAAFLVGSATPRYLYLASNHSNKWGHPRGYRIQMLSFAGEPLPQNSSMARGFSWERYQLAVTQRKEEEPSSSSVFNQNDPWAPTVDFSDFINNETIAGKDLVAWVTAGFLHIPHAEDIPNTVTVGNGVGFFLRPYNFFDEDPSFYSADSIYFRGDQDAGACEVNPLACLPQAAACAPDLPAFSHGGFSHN
rhMAO-A, sequence (P21397 whole entry): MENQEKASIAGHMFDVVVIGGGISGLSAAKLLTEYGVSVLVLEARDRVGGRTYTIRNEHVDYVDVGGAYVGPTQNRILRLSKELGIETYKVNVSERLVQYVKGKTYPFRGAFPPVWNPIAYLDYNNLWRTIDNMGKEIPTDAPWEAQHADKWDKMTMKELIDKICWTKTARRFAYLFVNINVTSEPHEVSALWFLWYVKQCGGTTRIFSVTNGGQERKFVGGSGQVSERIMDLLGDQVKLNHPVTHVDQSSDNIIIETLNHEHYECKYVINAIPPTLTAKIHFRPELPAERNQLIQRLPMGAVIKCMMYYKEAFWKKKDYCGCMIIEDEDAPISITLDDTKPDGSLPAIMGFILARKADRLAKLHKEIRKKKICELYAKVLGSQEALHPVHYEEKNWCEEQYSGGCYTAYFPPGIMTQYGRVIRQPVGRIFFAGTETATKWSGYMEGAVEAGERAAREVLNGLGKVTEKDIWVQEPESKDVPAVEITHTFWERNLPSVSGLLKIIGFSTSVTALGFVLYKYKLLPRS

On to `NC/C(=C/F)COc1ccc2nc(NCc3ccc(N4CCCC4=O)cc3)oc2c1` [Example 57, (Z)-1-(4-(((6-((2-(aminomethyl)-3-fluoroallyl)oxy)benzo[d]oxazol-2-yl)amino)methyl)phenyl)pyrrolidin-2-one 4-methylbenzenesulfonate], for which the IC50 in assay [1] was 1 to 10 µM; in assay [2] (setting [4]), 1 to 10 µM; in assay [3] (bound printed in cell), over 40 µM.
Consider `NC/C(=C/F)COc1ccc2nc(NCc3cccnc3)oc2c1` [Example 58, (Z)-6-((2-(aminomethyl)-3-fluoroallyl)oxy)-N-(pyridin-3-ylmethyl)benzo[d]oxazol-2-amine bis(4-methylbenzenesulfonate)], for which the IC50 in assay [1] was 1 to 10 µM; in assay [2] (bound printed in cell), over 50 µM; in assay [3] (setting [4]) it was 1 to 10 µM.
`CC(C)(C)CNc1nc2ccc(OC/C(=C/F)CN)cc2o1` [Example 59, (E)-6-((2-(aminomethyl)-3-fluoroallyl)oxy)-N-neopentylbenzo[d]oxazol-2-amine (4-methylbenzenesulfonate)]: the IC50 in assay [1], in assay [2] (setting [4]) and in assay [3] (setting [4]) was 1 to 10 µM throughout.
Regarding `Cc1cc(CNc2nc3ccc(OC/C(=C\F)CN)cc3o2)cc(C)n1` [Example 60, (Z)-6-((2-(aminomethyl)-3-fluoroallyl)oxy)-N-((2,6-dimethylpyridin-4-yl)methyl)benzo[d]oxazol-2-amine bis(4-methylbenzenesulfonate)], the IC50 in assay [1] is under 0.1 µM; in assay [2] (bound printed in cell), over 50 µM; in assay [3] (setting [4]), 1 to 10 µM.
`COCCNc1nc2ccc(OC/C(=C\F)CN)cc2o1` [Example 61, (Z)-6-((2-(aminomethyl)-3-fluoroallyl)oxy)-N-(2-methoxyethyl)benzo[d]oxazol-2-amine 4-methylbenzenesulfonate]: the IC50 in assay [1] was under 0.1 µM; in assay [2] (bound printed in cell) it was over 50 µM; in assay [3] (setting [4]), 1 to 10 µM.
As to `NC/C(=C/F)COc1ccc2nc(NCc3ccnc(C(F)(F)F)c3)oc2c1` [Example 62, (Z)-6-((2-(aminomethyl)-3-fluoroallyl)oxy)-N-((2-(trifluoromethyl)pyridin-4-yl)methyl)benzo[d]oxazol-2-amine 4-methylbenzenesulfonate], the half-maximal inhibitory concentration (IC50) in assay [1] was under 0.1 µM; in assay [2] (setting [4]), 10 to 30 µM; in assay [3] (setting [4]) it was 1 to 10 µM.
As for `NC/C(=C/F)COc1ccc2nc(N3CCOCC3)oc2c1` [Example 64, (Z)-3-fluoro-2-(((2-morpholinobenzo[d]oxazol-6-yl)oxy)methyl)prop-2-en-1-amine 4-methylbenzenesulfonate], the IC50 was under 0.1 µM in assay [1], 1 to 10 µM in assay [2] (setting [4]) and 1 to 10 µM in assay [3] (setting [4]).
Take `NC/C(=C/F)COc1ccc2nc(NCCC3COC3)oc2c1` [Example 65, (Z)-6-((2-(aminomethyl)-3-fluoroallyl)oxy)-N-(2-(oxetan-3-yl)ethyl)benzo[d]oxazol-2-amine 4-methylbenzenesulfonate]: the IC50 was under 0.1 µM in assay [1], 0.1 to 1 µM in assay [2] (setting [4]) and 1 to 10 µM in assay [3] (setting [4]).
With `NC/C(=C\F)COc1ccc2nc(N3CC4(COC4)C3)oc2c1` [Example 67, (E)-2-(((2-(2-oxa-6-azaspiro[3.3]heptan-6-yl)benzo[d]oxazol-6-yl)oxy)methyl)-3-fluoroprop-2-en-1-amine 4-methylbenzenesulfonate], the results for the IC50 in assay [1], in assay [2] (setting [4]) and in assay [3] (setting [4]) were under 0.1 µM, 1 to 10 µM and 1 to 10 µM, respectively.
As for `CCCCc1nc2cc(C)c(OC/C(=C/F)CN)cc2o1` [Example 68, (E)-2-(((2-butyl-5-methylbenzo[d]oxazol-6-yl)oxy)methyl)-3-fluoroprop-2-en-1-amine 4-methylbenzenesulfonate], the IC50 is under 0.1 µM in assay [1], 1 to 10 µM in assay [2] (setting [4]) and 0.1 to 1 µM in assay [3] (setting [4]).
On to `Cc1ncccc1CNc1nc2ccc(OC/C(=C\F)CN)cc2o1` [Example 69, (Z)-6-((2-(aminomethyl)-3-fluoroallyl)oxy)-N-((2-methylpyridin-3-yl)methyl)benzo[d]oxazol-2-amine 4-methylbenzenesulfonate], for which the IC50 in assay [1] was under 0.1 µM; in assay [2] (bound printed in cell), over 50 µM; in assay [3] (setting [4]), 1 to 10 µM.
In the case of `NC/C(=C\F)COc1ccc2nc(NCCCO)oc2c1` [Example 70, (E)-3-((6-((2-(aminomethyl)-3-fluoroallyl)oxy)benzo[d]oxazol-2-yl)amino)propan-1-ol 4-methylbenzenesulfonate], the 50% inhibitory concentration (IC50) was under 0.1 µM in assay [1], 1 to 10 µM in assay [2] (setting [4]) and 1 to 10 µM in assay [3] (setting [4]).
Regarding `CNC(=O)[C@H](Cc1ccccc1)Nc1nc2ccc(OC/C(=C\F)CN)cc2o1` [Example 71, (S,Z)-2-((6-((2-(aminomethyl)-3-fluoroallyl)oxy)benzo[d]oxazol-2-yl)amino)-N-methyl-3-phenylpropanamide 4-methylbenzenesulfonate], the IC50 in assay [1] was under 0.1 µM; in assay [2] (bound printed in cell), over 50 µM; in assay [3] (setting [4]), 1 to 10 µM.
As to `CNC(=O)CN(C)c1nc2ccc(OC/C(=C\F)CN)cc2o1` [Example 72, (Z)-2-((6-((2-(aminomethyl)-3-fluoroallyl)oxy)benzo[d]oxazol-2-yl)(methyl)amino)-N-methylacetamide 4-methylbenzenesulfonate], the IC50 in assay [1] is under 0.1 µM; in assay [2] (bound printed in cell), over 50 µM; in assay [3] (bound printed in cell), over 50 µM.
In the case of `CCCCc1nc2ccc(OC/C(=C\F)CN)cc2n1C` [Example 73, (Z)-2-(((2-Butyl-1-methyl-1H-benzo[d]imidazol-6-yl)oxy)methyl)-3-fluoroprop-2-en-1-amine 4-methylbenzenesulfonate], the values for the IC50 in assay [1], in assay [2] (setting [4]) and in assay [3] (setting [4]) were under 0.1 µM, 1 to 10 µM and 1 to 10 µM, respectively.
Turning to `COc1cc(CNc2nc3ccc(OC/C(=C\F)CN)cc3o2)ccn1` [Example 74, (Z)-6-((2-(aminomethyl)-3-fluoroallyl)oxy)-N-((2-methoxypyridin-4-yl)methyl)benzo[d]oxazol-2-amine 4-methylbenzenesulfonate], the figures for the IC50 in assay [1], in assay [2] (setting [4]) and in assay [3] (setting [4]) were under 0.1 µM, 1 to 10 µM and 1 to 10 µM, respectively.
As for `COc1ncccc1CNc1nc2ccc(OC/C(=C\F)CN)cc2o1` [Example 75, (Z)-6-((2-(aminomethyl)-3-fluoroallyl)oxy)-N-((2-methoxypyridin-3-yl)methyl)benzo[d]oxazol-2-amine 4-methylbenzenesulfonate], the IC50 in assay [1] was under 0.1 µM; in assay [2] (bound printed in cell) it was over 50 µM; in assay [3] (setting [4]), 0.1 to 1 µM.
For `COc1ccc(CNc2nc3ccc(OC/C(=C\F)CN)cc3o2)cn1` [Example 76, (Z)-6-((2-(aminomethyl)-3-fluoroallyl)oxy)-N-((6-methoxypyridin-3-yl)methyl)benzo[d]oxazol-2-amine 4-methylbenzenesulfonate], the IC50 was under 0.1 µM in assay [1], 1 to 10 µM in assay [2] (setting [4]) and 1 to 10 µM in assay [3] (setting [4]).
For the compound `NC/C(=C/F)COc1ccc2nc(N3CCC(O)CC3)oc2c1` [Example 77, (Z)-1-(6-((2-(aminomethyl)-3-fluoro-allyl)oxy)benzo[d]oxazol-2-yl)piperidin-4-ol 4-methylbenzenesulfonate], the IC50 in assay [1] was under 0.1 µM; in assay [2] (setting [4]) it was 1 to 10 µM; in assay [3] (bound printed in cell), over 50 µM.
For the compound `NC/C(=C/F)COc1ccc2nc(NC3CCC(O)CC3)oc2c1` (stereo not drawn) [Example 78, (Z)-4-((6-((2-(aminomethyl)-3-fluoroallyl)oxy)benzo[d]oxazol-2-yl)amino)cyclohexan-1-ol 4-methylbenzenesulfonate], the IC50 in assay [1] was under 0.1 µM; in assay [2] (bound printed in cell), over 50 µM; in assay [3] (setting [4]) it was 1 to 10 µM.
`CNC(=O)[C@@H](Cc1ccccc1)Nc1nc2ccc(OC/C(=C\F)CN)cc2o1` [Example 80, (R,Z)-2-((6-((2-(aminomethyl)-3-fluoroallyl)oxy)benzo[d]oxazol-2-yl)amino)-N-methyl-3-phenylpropanamide 4-methylbenzenesulfonate]: the IC50 in assay [1] is under 0.1 µM; in assay [2] (bound printed in cell), over 40 µM; in assay [3] (bound printed in cell), over 40 µM.
`COCCCNc1nc2ccc(OC/C(=C\F)CN)cc2o1` [Example 81, (Z)-6-((2-(aminomethyl)-3-fluoroallyl)oxy)-N-(3-methoxypropyl)benzo[d]oxazol-2-amine 4-methylbenzenesulfonate]: the IC50 in assay [1] is under 0.1 µM; in assay [2] (setting [4]), 1 to 10 µM; in assay [3] (setting [4]) it was 1 to 10 µM.
`CCCCc1nc2c(F)cc(OC/C(=C/F)CN)cc2o1` [Example 82, (E)-2-(((2-butyl-4-fluorobenzo[d]-oxazol-6-yl)oxy)methyl)-3-fluoroprop-2-en-1-amine 4-methylbenzenesulfonate]: the IC50 in assay [1] was under 0.1 µM; in assay [2] (setting [4]), 1 to 10 µM; in assay [3] (setting [4]), under 0.1 µM.
For `NC/C(=C/F)COc1ccc2nc(NCc3ccc(C(F)(F)F)nc3)oc2c1` [Example 83, (Z)-6-((2-(aminomethyl)-3-fluoroallyl)oxy)-N-((6-(trifluoromethyl)pyridin-3-yl)methyl)benzo[d]oxazol-2-amine 4-methylbenzenesulfonate], the IC50 in assay [1] was under 0.1 µM; in assay [2] (setting [4]), 10 to 30 µM; in assay [3] (setting [4]), 1 to 10 µM.
With `NC/C(=C\F)COc1ccc2nc(NCc3ccc(C(F)(F)F)nc3)oc2c1` [Example 84, (E)-6-((2-(aminomethyl)-3-fluoroallyl)oxy)-N-((6-(trifluoromethyl)pyridin-3-yl)methyl)benzo[d]oxazol-2-amine 4-methylbenzenesulfonate], the values for the 50% inhibitory concentration (IC50) in assay [1], in assay [2] (bound printed in cell) and in assay [3] (setting [4]) were under 0.1 µM, over 40 µM and 1 to 10 µM, respectively.
